According to PMC6120666 (The EMBO Journal, 2018):

System: THP1Blue cells, TLR1/TLR2/TLR4
Test: THP1Blue NF-κB-SEAP reporter assay, non-NOD agonists (Pam3CSK4, LPS, HKLM)
Type: cell-based, human
Conditions: Pam3CSK4, LPS or HKLM
Procedure: For HEKBlue assay, cells were seeded into clear 96‐well plates at 7.5 × 10^3 cells/well and allowed to attach for 48 h. On the day of the experiment, media was changed to 100 μl of HEKBlue detection media (InvivoGen). Inhibitors were diluted and added in 0.5 μl DMSO 15 min prior to the addition of 1 ng/ml L18‐MDP (InvivoGen). After 8–9 h, absorbance at 620 nm was measured using Victor3V plate reader (Perkin Elmer, Waltham, MA). Values of media‐only wells were subtracted and %inhibition for each compound concentration relative to the DMSO/L18‐MDP‐treated controls was calculated. […] After induction, 20 μl of media was mixed with 180 μl of QUANTI‐Blue reagent (InvivoGen) and incubated at 37°C for 3–4 h, followed by absorbance measurement at 620 nm. IC50 values were calculated as described for HEKBlue assay. […]
For HEKBlue assay, cells were seeded into clear 96 well plates at 7.5x10^3 cells/well and allowed to attach for 48 h. […] After 8-9 h, absorbance at 620 nm was measured using Victor3V plate reader (Perkin Elmer, Waltham, MA). Values of media-only wells were subtracted and %inhibition for each compound concentration relative to the DMSO/L18-MDP-treated controls were calculated.
Inhibition values + StDev were fitted by non-linear regression using Prism software (GraphPad Software, La Jolla, CA) to calculate IC50 values. […] IC50 values were calculated as described for HEKBlue assay. […]

Row | SMILES | effect on NF-κB responses to non-NOD agonists
1 | CCCS(=O)(=O)Nc1cc(-c2cc(-c3ccc(N4CCNCC4)cc3)cnc2N)cc(F)c1OC [CSLP37] | no detected effect
2 | CCCS(=O)(=O)Nc1cc(-c2cc(-c3ccc(N4CCNCC4)cc3)cnc2N)cc(OC)c1OC [CSLP43] | no detected effect
